pIC50: −log10 of the molar value.
How the values were obtained:
HBV DNA = test: Antiviral activity: inhibition of HBV DNA in supernatant of HepG 2.2.15 cells (dot blot hybridization); type: cell-based; settings: Hepatitis B virus, HepG2.2.15, 192 h, 8 days incubation, HB-specific DNA in supernatant, read-out: IC50 (inhibitory effect on HBV DNA)
Description: The antiviral effect of the compound of the present invention is determined according to the methods described by Sells, et al (M. A. Sells, M. L. Chen, G. Proc. Natl. Acad. Sci. 1987, 84, 1005-1009) and Korba, et al (B. E. Korba, J. L. Gerin Antiviral Research 1992, 19, 55-70).
(§1) The antiviral test was carried out in a 96-cell microtiter plate. The first column of the plate only contained a culture medium and HepG 2.2.15 cells, as a blank control.
(§2) First, a stock solution ([…]) of a test compound was dissolved in DMSO, and further diluted with a culture medium for growth of HepG 2.2.15 cells. Usually, the compound of the present invention was transferred by suction at a test concentration of 100 μg/ml (the first test concentration) to each cell of the second column of the microtiter plate, and then diluted with the culture medium for growth plus 2% fetal bovine serum (25 μL), by 2 times once, up to 2^10 times at the maximum.
(§3) Then, 225 μL of a suspension of HepG 2.2.15 cells in the culture medium for growth plus 2% fetal bovine serum (5×10^4 cells/ml) was added to each cell of the 96-cell microtiter plate.
(§4) The test mixture was incubated under the conditions of 37° C., 5% CO2 for 4 days. Then, the supernatant was removed by suction, and to each cell 225 μL of a new-prepared culture medium for growth was added. Again, the compound of the present invention was added with a solution of 25 μL. The obtained mixture was further incubated for 4 days.
Thereafter, the supernatant was collected, and sucked in vacuum to a 96-cell dot blot chamber covered by nylon film (used in accordance with the instructions for use provided by the manufacturer).
Determination of Antiviral Activity
After the supernatant was transferred onto the nylon film of the dot blot device (see the contents hereinabove), the supernatant of HepG 2.2.15 cells was denaturated (1.5 M NaCl/0.5 M NaOH), neutralized (3 M NaCl/0.5 M Tris. HCl, pH 7.5) and washed (2×SSC). Then, the filter film was kept at 120° C. for 2-4 hours, whereby DNA was baked on the filter film.
Usually, viral DNA of HepG 2.2.15 cells treated on the nylon film was detected by using a non-radioactive digoxigenin labeled HB-specific DNA probe. Wherein, each time the probe was labeled with digoxigenin, purified and hybridized according to the directions for use given by the manufacturer.
Briefly, pre-hybridization and hybridization were conducted with 5×SSC, 1× blocking agent, 0.1% N-lauroyl sarcosine, 0.02% SDS and 100 μg sperm DNA of black carp. After pre-hybridization at 60° C. for 30 min, a specific hybridization (at 60° C. for 14 hr) was conducted with 20-40 ng/ml digoxigenin labeled denaturalized HBV specific DNA. Then, the film was washed, followed by HBV DNA detection with digoxigenin antibody.
The immunology detection of digoxigenin labeled DNA was conducted according to the directions for use given by the manufacturer.
Briefly speaking, the film was washed and pre-hybridized with a blocking agent (in accordance with the directions for use given by the manufacturer), and then hybridized with an anti-DIG antibody that had been previously coupled onto an alkaline phosphatase for 30 min. After washing, an alkaline phosphatase substrate CSPD was added, and cultured together with the filter for 5 min, and then wrapped in a plastic film, followed by further culturing at 37° C. for 15 min. The filter was exposed to X-ray, and the chemical luminous signal (culturing for 10 min to 2 hr according to the signal strength) of HB-specific DNA on the film was detected, whereby a half inhibitory concentration (IC50) was calculated.
The half inhibitory concentration (IC50) refers to the concentration of the compound of the present invention which reduces the HB-specific band by 50% as compared with the untreated sample.

HepG 2.2.15 cells = test: Cytotoxicity in HepG 2.2.15 cells (cell morphology under microscope after 8 days, Reed&Muench); type: cell-based; settings: pathological change of cells after 8 days
Description: as §1, §2, §3, §4
Prior to collection of the supernatant for determination of the antiviral effect, the change in cytotoxicity of HepG 2.2.15 cells was investigated by using optical microscopic technique or biochemical detection method (e.g., Alamar Blue staining or Trypan Blue staining).
Determination of Cytotoxicity
The substance-induced change in cytotoxicity in HepG 2.2.15 cells or in inhibition of the cells could be determined by using, e.g., optical microscopic technique, and expressed by the change of cell morphology. Such substance-induced changes, e.g., cell lysis, cavity formation or change in cell morphology, in HepG 2.2.15 cells were apparent as compared to the untreated cells.
Taking the observed pathological change of cells as index, the pathological change of cells was observed under microscope after 8 days, a complete destroy being indicated as 4; 75% being indicated as 3; 50% being indicated as 2; 25% being indicated as 1; and no pathological change being indicated as 0. The average extents of pathological change of cells and the inhibition percentages at various concentrations were calculated. According to Reed&Muench method, a half toxic concentration (TC50) and a maximum non-toxic concentration (TC0) were calculated.
TC50 refers to the concentration of the compound of the present invention when 50% of cells have a similar morphology to the corresponding cells as a control.

Row | SMILES | pIC50 (HBV DNA) | TD50 (HepG 2.2.15 cells) | melting point
1 | CCOC(=O)C1=C(C)NC(c2cncs2)=NC1c1ccc(F)cc1Cl (stereo not drawn) [Example 42, ethyl 2-(thiazol-5-yl)-4-(2-chloro-4-fluorophenyl)-6-methyl-1,4-dihydro-pyrimidin-5-carboxylate] | 5.44 | >32.90 µM | 121 to 125 °C
2 | CCOC(=O)C1=C(C)NC(c2cnc(NC(C)=O)s2)=NC1c1ccc(F)cc1Cl (stereo not drawn) [Example 43, ethyl 2-(2-acetylaminothiazol-5-yl)-4-(2-chloro-4-fluorophenyl)-6-methyl-1,4-dihydro-pyrimidin-5-carboxylate] | 5.64 | 76.43 µM | > 250 °C
3 | CCOC(=O)C1=C(C)NC(c2cnc(N)s2)=NC1c1ccc(F)cc1Cl (stereo not drawn) [Example 44, ethyl 2-(2-aminothiazol-5-yl)-4-(2-chloro-4-fluorophenyl)-6-methyl-1,4-dihydro-pyrimidin-5-carboxylate] | 5.57 | 22.56 µM | 132 to 135 °C
4 | CCOC(=O)C1=C(C)NC(c2nccn2C)=NC1c1ccc(F)cc1Cl (stereo not drawn) [Example 49, ethyl 2-(N-methyl-1H-imidazol-2-yl)-4-(2-chloro-4-fluorophenyl)-6-methyl-1,4-dihydro-pyrimidin-5-carboxylate] | 6.57 | 38.83 µM | 166 to 167 °C
5 | CCOC(=O)C1=C(C)NC(c2nccn2Cc2ccccc2)=NC1c1ccc(F)cc1 (stereo not drawn) [Example 51, ethyl 2-(N-benzyl-1H-imidazol-2-yl)-4-(4-fluorophenyl)-6-methyl-1,4-dihydro-pyrimidin-5-carboxylate] | 5.18 | 36.87 µM | 162 to 164 °C
6 | CCOC(=O)C1=C(C)NC(c2nccn2C)=NC1c1ccc(F)cc1 (stereo not drawn) [Example 53, ethyl 2-(N-methyl-1H-imidazol-2-yl)-4-(4-fluorophenyl)-6-methyl-1,4-dihydro-pyrimidin-5-carboxylate] | 4.99 | 281.14 µM | 134 to 136 °C
7 | COC(=O)C1=C(C)NC(c2c(F)cccc2F)=NC1c1ccc(F)cc1Cl (stereo not drawn) [Example 55, methyl 2-(2,6-difluorophenyl)-4-(2-chloro-4-fluorophenyl)-6-methyl-1,4-dihydro-pyrimidin-5-carboxylate] | 5.40 | 60.84 µM | 126 to 128 °C
8 | CCOC(=O)C1=C(C)NC(c2c(F)cccc2F)=NC1c1ccc(F)cc1Cl (stereo not drawn) [Example 56, ethyl 2-(2,6-difluorophenyl)-4-(2-chloro-4-fluorophenyl)-6-methyl-1,4-dihydro-pyrimidin-5-carboxylate] | 5.69 | 117.50 µM | 163 to 165 °C
9 | CCOC(=O)C1=C(C)NC(c2c(F)cc(F)cc2F)=NC1c1ccc(F)cc1Cl (stereo not drawn) [Example 58, ethyl 2-(2,4,6-trifluorophenyl)-4-(2-chloro-4-fluorophenyl)-6-methyl-1,4-dihydro-pyrimidin-5-carboxylate] | 5.59 | 32.50 µM | 184 to 186 °C
10 | COC(=O)C1=C(C)NC(c2c(F)cc(F)cc2F)=NC1c1ccc(F)cc1Cl (stereo not drawn) [Example 59, methyl 2-(2,4,6-trifluorophenyl)-4-(2-chloro-4-fluorophenyl)-6-methyl-1,4-dihydro-pyrimidin-5-carboxylate] | 5.47 | >30.30 µM | 112 to 114 °C

From US8168642B2, “Dihydropyrimidine compounds and their uses in preparation of medicaments for treating and preventing antiviral diseases” (Beijing Molecule Science and Technology Co., Ltd., priority 2006, dated 2012)
